Source: patent EP2270002A1 (Vereniging voor Christelijk Hoger Onderwijs, …, priority 2009, dated 2011)

Biological target: histamine H4 receptor (Homo sapiens, UniProt Q9H3N8)
Test: histamine H4 receptor Ki (Table 1; no method described)
Type: binding

histamine H4 receptor, sequence (Q9H3N8 whole entry, species assumed): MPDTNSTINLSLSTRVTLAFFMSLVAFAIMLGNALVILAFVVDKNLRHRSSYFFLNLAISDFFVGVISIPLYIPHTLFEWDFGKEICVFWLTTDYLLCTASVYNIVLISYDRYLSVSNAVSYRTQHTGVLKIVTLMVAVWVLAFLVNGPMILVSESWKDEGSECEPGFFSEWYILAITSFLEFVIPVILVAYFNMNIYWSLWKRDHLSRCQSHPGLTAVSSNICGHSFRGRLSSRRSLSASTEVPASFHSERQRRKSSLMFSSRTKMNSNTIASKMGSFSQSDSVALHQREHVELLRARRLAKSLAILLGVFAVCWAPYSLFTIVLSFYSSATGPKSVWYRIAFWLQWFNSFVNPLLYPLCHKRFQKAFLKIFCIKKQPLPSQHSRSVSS

| Compound | Ki [nM] |
| --- | --- |
| COc1ccc(-c2ccc3c(N4CCN(C)CC4)nc(N)nc3c2)cc1 [Compound 6, 7-(4-methoxyphenyl)-4-(4-methylpiperazin-1-yl)quinazolin-2-amine] | 55 |
| CN1CCN(c2nc(N)nc3cc(-c4ccco4)ccc23)CC1 [Compound 8, 7-(furan-2-yl)-4-(4-methylpiperazin-1-yl)quinazolin-2-amine] | 4 |
| CN1CCN(c2nc(N)nc3cc(Br)ccc23)CC1 [Compound 2, 7-bromo-4-(4-methylpiperazin-1-yl)quinazolin-2-amine] | 17 |
| CN1CCN(c2nc(N)nc3cc(-c4ccccc4)ccc23)CC1 [Compound 3, 4-(4-methylpiperazin-1-yl)-7-phenylquinazolin-2-amine] | 19 |
| Cc1cccc(C)c1-c1ccc2c(N3CCN(C)CC3)nc(N)nc2c1 [Compound 4, 7-(2,6-dimethylphenyl)-4-(4-methylpiperazin-1-yl)quinazolin-2-amine] | 90 |
| CN1CCN(c2nc(N)nc3c(-c4ccccc4)cccc23)CC1 [Compound 12, 4-(4-methylpiperazin-1-yl)-8-phenylquinazolin-2-amine] | 32 |
| Cc1cccc(C)c1-c1cccc2c(N3CCN(C)CC3)nc(N)nc12 [Compound 13, 8-(2,6-dimethylphenyl)-4-(4-methylpiperazin-1-yl)quinazolin-2-amine] | 221 |
| CN1CCN(c2nc(N)nc3c(-c4ccoc4)cccc23)CC1 [Compound 16, 8-(furan-3-yl)-4-(4-methylpiperazin-1-yl)quinazolin-2-amine] | 109 |
| CN1CCN(c2nc(N)nc3cc(-c4ccc(C#N)cc4)ccc23)CC1 [Compound 5, 4-(2-amino-4-(4-methylpiperazin-1-yl)quinazolin-7-yl)benzonitrile] | 29 |
| CN1CCN(c2nc(N)nc3c(Br)cccc23)CC1 [Compound 11, 8-bromo-4-(4-methylpiperazin-1-yl)quinazolin-2-amine] | 111 |
| CN1CCN(c2nc(N)nc3c(-c4ccc(C#N)cc4)cccc23)CC1 [Compound 14, 4-(2-amino-4-(4-methylpiperazin-1-yl)quinazolin-8-yl)benzonitrile] | 2330 |
| Cc1cccc2c(N3CCN(C)CC3)nc(N)nc12 [Compound 10] | 91 |
| CN1CCN(c2nc(N)nc3cc(-c4ccoc4)ccc23)CC1 [Compound 7, 7-(furan-3-yl)-4-(4-methylpiperazin-1-yl)quinazolin-2-amine] | 6 |
| CN1CCN(c2nc(N)nc3cc(-c4ccsc4)ccc23)CC1 [Compound 9, 4-(4-methylpiperazin-1-yl)-7-(thiophen-3-yl)quinazolin-2-amine] | 5 |
| Cc1ccc2c(N3CCN(C)CC3)nc(N)nc2c1 [Compound 1] | 24 |
| COc1ccc(-c2cccc3c(N4CCN(C)CC4)nc(N)nc23)cc1 [Compound 15, 8-(4-methoxyphenyl)-4-(4-methylpiperazin-1-yl)quinazolin-2-amine] | 945 |
